Experimental data taken from ChEMBL document CHEMBL1201862, “PubChem BioAssay data set” (2004).
Calls of active or inactive are those of the source.

Key:
[1] = target: T1, Heat shock factor protein 1 (Mus musculus, UniProt P38532); test: inhibition of MG132-induced HSE-luciferase signal, confirmation, cell-based, NIH3T3, luminescence, dose retest (AID 2382); assay type: functional;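 further: NIH3T3 fibroblasts with HSF1-driven luciferase reporter stressed by proteasome inhibitor MG132; luminescence from HSF1-driven luciferase expression after 8 hours of MG132 stress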
T1 sequence (P38532 whole entry): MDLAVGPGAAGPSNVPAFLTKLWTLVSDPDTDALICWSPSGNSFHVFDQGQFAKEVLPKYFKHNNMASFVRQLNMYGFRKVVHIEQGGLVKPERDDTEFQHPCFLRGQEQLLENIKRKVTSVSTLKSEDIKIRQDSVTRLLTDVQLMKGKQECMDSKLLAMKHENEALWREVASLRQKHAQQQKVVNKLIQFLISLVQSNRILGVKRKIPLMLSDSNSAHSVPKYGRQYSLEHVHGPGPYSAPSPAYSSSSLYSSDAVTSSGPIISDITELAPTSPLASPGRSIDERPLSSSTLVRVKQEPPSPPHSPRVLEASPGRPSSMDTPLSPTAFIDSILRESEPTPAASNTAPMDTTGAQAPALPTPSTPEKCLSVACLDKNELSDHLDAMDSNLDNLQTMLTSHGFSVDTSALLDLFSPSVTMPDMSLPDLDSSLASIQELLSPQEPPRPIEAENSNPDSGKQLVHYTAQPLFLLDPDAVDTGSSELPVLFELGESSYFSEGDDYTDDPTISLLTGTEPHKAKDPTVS

Coagulation factor XII = target: T2, Coagulation factor XII (Homo sapiens, UniProt P00748); assay type: functional;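 further: activated factor XIIa alpha cleaving a fluorogenic AMC peptide substrate; inhibitor potency from loss of enzyme activity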
T2 sequence (P00748 whole entry): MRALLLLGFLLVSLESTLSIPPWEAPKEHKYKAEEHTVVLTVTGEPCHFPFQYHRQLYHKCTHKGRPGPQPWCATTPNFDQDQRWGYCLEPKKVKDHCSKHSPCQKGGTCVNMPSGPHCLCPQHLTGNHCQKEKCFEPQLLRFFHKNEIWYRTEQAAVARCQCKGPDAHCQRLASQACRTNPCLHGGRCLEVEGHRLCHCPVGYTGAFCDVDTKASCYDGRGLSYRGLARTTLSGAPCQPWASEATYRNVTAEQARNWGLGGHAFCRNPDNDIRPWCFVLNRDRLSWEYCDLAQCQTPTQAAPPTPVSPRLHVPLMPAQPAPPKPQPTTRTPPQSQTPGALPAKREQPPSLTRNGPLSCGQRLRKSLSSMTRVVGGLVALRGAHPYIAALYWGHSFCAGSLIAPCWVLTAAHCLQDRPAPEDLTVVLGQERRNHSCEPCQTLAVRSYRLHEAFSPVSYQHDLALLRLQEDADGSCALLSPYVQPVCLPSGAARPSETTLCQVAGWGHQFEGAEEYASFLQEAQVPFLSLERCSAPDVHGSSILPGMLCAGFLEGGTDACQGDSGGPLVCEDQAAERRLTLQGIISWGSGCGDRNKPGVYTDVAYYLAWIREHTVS

fMet-Leu-Phe receptor = target: T3, fMet-Leu-Phe receptor (Homo sapiens, UniProt P21462); test: FPR ligands, dose response (AID 519); assay type: functional
T3 sequence (P21462 whole entry): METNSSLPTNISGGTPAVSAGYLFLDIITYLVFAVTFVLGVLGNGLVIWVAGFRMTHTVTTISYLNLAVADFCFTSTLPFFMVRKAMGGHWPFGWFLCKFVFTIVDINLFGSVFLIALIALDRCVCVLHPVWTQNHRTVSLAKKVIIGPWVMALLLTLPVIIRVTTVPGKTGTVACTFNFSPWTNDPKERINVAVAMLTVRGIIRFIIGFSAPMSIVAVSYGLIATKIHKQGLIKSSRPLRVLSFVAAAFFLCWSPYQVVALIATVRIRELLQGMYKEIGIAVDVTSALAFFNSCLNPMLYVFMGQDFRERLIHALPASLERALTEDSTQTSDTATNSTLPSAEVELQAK

[2] = target: G-protein coupled receptor 55 (Homo sapiens, UniProt Q9Y2T6); test: GPR55 antagonists blocking LPI-driven arrestin recruitment, primary screen, imaging, U2OS, beta-arrestin-GFP, LPI agonist (AID 2013); assay type: functional;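 further: antagonist potency measured as reduced agonist-driven arrestin aggregation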
[3] = inhibitors of firefly luciferase expression or activity, dose response, H4 neuroglioma cells, luminescence (AID 1990); assay type: functional, cell-based
[4] = cytotoxicity in HEK-293T cells, dose response, cytotoxicity control for TCR NF-kB inhibitor project, luminescence, T-cell screen hits (AID 489026); assay type: functional, cell-based;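 further: cells exposed to compound about 14 hours before the viability readout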
BJ [5] = test: cells; assay type: functional, cell-based; conditions: Homo sapiens
[6] = inhibitors of SNCA 5'UTR-driven reporter translation, confirmation, H4 neuroglioma cells, luminescence (AID 1988); assay type: functional, cell-based
BJ [7] = test: cytotoxicity toward BJ-TERT-LT-ST fibroblasts, dose response, cell-based, RAS-independent, luminescence (AID 1935); assay type: functional; conditions: Homo sapiens;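 further: BJ fibroblasts immortalized with TERT plus LT and ST oncogenes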
[8] = Luminescence Cell-Based Dose Response HTS to Identify Inhibitors of 5'UTR Stem-Loop Driven Prion Protein mRNA Translation in H4 Neuroglioblastoma Cells. [Related pubchem assays: 1827 (Project Summary), 1813 (Primary HTS)]; assay type: functional
BJ [9] = test: cytotoxicity toward BJ-TERT fibroblasts, dose response, cell-based, RAS-independent, luminescence (AID 1933); assay type: functional; conditions: Homo sapiens
[10] = cytotoxicity toward DRD oncogenic fibroblasts, dose response, cell-based, non-viral oncogenic, luminescence (AID 1934); assay type: functional; conditions: Homo sapiens
Cytochrome P450 3A4 = Cytochrome P450 3A4 (Homo sapiens, UniProt P08684); conditions: Potency;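 further: confirmatory qHTS run detecting inhibitors and substrates of CYP3A4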
Prothrombin = Prothrombin (Homo sapiens, UniProt P00734); test: Thrombin 1536 HTS Dose Response Confirmation. [Related pubchem assays: 1046 (Thrombin 1536 HTS; hits were confirmed in this assay)]; assay type: functional
SN12K1 = test: cells; assay type: functional; conditions: Homo sapiens
P388 = test: cells; assay type: functional; conditions: Mus musculus
P388/ADR = test: cells; assay type: functional; conditions: Mus musculus
Fatty acid synthase [11] = target: T4, Fatty acid synthase (Homo sapiens, UniProt P49327); test: FAS thioesterase domain inhibitors, dose response, biochemical, endpoint fluorescence intensity, uHTS hits (AID 624327); assay type: functional;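 further: fluorescence from hydrolysis of an O-methyl fluorescein acyl ester substrate by the enzyme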
Fatty acid synthase [12] = target: T4, Fatty acid synthase; test: FAS thioesterase domain inhibitors, dose response, biochemical, kinetic fluorescence intensity (AID 624326); assay type: functional;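 further: rate of fluorescence rise from hydrolysis of a fluorogenic O-methyl fluorescein ester substrate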
Nonstructural protein 1 = Nonstructural protein 1 (Influenza A virus, UniProt Q194T2); assay type: functional, Influenza A virus (A/California/07/2009(H1N1))
Paired box protein Pax-8 = Paired box protein Pax-8 (Homo sapiens, UniProt Q06710); test: inhibitors of PAX8-driven TPO luciferase reporter, dose response, RMG-I cells, cherry-pick (AID 687027); assay type: functional, cell-based;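 further: luciferase reporter driven by Pax8 target thyroperoxidase promoter measured by SteadyGlo luminescence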
[13] = NIH:OVCAR-3 ovarian cancer cell cytotoxicity, dose response, PAX8 inhibitor project, plate reader, dry powder samples (AID 743044); assay type: functional, cell-based
[14] = cytotoxicity in OVCAR8 ovarian cancer cells, dose response, PAX8 project, cell-based, plate reader, dry powder samples (AID 743197); assay type: functional; conditions: OVCAR-8
[15] = target: Induced myeloid leukemia cell differentiation protein Mcl-1 (Homo sapiens, UniProt Q07820); assay type: functional
Chain of Induced myeloid leukemia cell differentiation protein Mcl-1 (Q07820 whole entry): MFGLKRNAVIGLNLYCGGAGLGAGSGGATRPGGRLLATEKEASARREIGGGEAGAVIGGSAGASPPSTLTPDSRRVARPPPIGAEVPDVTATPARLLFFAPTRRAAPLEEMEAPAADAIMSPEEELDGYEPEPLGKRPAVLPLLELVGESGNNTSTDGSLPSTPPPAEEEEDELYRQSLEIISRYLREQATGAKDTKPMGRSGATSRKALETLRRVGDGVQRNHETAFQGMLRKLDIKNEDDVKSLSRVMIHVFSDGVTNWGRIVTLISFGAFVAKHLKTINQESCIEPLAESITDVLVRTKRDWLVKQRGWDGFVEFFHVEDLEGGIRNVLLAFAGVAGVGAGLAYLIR

Chain of G-protein coupled receptor 55 (Q9Y2T6 whole entry): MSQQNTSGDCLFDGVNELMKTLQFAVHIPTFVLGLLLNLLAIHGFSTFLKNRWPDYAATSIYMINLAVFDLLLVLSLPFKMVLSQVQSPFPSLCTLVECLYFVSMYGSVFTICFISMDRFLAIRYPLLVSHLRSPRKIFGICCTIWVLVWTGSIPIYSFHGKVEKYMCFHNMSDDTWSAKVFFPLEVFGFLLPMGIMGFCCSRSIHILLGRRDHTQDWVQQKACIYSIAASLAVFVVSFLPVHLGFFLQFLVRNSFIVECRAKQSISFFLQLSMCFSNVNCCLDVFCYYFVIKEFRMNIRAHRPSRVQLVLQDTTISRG
T4 sequence (P49327 whole entry, the tested form may be a part): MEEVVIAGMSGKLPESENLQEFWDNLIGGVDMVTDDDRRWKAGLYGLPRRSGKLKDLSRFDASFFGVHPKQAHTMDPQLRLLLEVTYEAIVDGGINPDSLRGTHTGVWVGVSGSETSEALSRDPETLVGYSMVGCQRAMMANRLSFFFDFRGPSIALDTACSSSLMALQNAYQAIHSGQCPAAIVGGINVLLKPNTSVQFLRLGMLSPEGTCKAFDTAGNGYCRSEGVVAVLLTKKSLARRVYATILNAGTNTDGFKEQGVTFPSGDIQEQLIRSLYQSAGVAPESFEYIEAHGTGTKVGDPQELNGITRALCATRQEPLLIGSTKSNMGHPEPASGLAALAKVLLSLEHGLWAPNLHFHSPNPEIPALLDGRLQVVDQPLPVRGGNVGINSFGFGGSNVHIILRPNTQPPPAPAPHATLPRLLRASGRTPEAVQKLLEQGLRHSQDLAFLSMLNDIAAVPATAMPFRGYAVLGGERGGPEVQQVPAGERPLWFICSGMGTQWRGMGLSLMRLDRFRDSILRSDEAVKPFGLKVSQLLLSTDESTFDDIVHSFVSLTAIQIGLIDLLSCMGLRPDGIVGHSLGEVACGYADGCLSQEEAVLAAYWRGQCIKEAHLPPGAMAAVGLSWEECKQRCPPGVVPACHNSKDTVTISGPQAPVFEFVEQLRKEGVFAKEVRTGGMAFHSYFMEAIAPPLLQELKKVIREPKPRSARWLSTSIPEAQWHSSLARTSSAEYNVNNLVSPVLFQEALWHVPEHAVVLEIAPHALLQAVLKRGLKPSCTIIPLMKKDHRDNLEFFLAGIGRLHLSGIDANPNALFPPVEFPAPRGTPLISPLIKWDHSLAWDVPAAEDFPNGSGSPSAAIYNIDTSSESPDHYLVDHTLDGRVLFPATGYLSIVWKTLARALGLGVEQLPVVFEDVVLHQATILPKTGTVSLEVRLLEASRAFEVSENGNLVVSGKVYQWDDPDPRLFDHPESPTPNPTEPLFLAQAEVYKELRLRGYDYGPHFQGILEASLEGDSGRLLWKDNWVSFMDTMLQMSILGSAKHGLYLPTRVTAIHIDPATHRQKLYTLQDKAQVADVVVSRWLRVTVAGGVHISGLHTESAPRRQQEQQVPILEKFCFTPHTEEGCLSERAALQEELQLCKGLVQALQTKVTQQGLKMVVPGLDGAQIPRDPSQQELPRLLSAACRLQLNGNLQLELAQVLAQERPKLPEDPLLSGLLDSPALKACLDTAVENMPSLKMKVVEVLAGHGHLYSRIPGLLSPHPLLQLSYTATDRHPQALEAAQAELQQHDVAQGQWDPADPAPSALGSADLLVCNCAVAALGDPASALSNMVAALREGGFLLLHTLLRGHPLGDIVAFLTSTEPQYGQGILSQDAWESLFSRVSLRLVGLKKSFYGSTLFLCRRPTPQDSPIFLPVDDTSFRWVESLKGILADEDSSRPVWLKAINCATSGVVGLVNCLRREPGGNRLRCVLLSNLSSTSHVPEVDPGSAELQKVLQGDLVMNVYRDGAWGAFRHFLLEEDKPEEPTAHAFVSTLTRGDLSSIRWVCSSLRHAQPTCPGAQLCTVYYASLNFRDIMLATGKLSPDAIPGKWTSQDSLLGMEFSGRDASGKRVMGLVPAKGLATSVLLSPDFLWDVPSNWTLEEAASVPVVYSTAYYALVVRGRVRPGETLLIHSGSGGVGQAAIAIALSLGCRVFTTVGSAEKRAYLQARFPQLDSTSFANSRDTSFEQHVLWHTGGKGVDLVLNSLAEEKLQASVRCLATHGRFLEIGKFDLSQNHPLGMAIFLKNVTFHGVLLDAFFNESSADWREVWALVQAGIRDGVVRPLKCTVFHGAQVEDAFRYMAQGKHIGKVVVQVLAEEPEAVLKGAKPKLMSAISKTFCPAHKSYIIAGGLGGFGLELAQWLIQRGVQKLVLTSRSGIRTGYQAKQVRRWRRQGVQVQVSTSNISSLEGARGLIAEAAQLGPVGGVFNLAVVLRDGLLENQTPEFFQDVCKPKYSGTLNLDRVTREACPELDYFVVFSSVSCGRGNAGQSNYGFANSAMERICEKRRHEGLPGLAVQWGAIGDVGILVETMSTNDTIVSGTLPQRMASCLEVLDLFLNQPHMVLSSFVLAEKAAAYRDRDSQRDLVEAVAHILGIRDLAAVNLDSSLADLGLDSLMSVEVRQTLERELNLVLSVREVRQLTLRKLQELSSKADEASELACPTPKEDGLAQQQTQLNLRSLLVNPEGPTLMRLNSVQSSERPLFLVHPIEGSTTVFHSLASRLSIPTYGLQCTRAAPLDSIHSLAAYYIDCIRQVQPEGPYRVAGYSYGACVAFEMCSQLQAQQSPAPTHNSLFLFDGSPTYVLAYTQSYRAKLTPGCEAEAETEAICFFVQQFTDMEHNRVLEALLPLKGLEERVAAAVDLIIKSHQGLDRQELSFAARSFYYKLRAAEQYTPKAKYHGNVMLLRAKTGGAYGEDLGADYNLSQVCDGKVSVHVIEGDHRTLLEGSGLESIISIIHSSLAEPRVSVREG
Chain of Cytochrome P450 3A4 (P08684 whole entry): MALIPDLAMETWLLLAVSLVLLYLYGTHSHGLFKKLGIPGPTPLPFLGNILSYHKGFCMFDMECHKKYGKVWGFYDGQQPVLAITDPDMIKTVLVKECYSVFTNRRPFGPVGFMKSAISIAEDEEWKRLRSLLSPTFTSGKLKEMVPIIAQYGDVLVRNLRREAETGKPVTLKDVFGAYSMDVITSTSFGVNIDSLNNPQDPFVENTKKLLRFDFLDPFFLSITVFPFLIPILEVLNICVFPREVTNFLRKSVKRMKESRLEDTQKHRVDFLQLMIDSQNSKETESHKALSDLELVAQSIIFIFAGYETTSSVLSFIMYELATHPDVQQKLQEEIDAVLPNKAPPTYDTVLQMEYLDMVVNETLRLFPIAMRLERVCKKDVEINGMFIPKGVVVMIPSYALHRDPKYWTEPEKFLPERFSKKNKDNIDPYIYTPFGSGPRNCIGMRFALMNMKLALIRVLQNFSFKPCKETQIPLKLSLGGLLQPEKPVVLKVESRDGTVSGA
Chain of Nonstructural protein 1 (Q194T2 whole entry): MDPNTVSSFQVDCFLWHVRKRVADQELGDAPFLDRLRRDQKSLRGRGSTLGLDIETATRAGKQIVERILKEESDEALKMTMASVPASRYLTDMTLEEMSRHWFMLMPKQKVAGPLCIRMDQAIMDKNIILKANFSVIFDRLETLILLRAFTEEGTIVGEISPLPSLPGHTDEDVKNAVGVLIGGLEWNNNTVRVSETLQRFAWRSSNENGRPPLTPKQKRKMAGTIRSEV
Chain of Paired box protein Pax-8 (Q06710 whole entry): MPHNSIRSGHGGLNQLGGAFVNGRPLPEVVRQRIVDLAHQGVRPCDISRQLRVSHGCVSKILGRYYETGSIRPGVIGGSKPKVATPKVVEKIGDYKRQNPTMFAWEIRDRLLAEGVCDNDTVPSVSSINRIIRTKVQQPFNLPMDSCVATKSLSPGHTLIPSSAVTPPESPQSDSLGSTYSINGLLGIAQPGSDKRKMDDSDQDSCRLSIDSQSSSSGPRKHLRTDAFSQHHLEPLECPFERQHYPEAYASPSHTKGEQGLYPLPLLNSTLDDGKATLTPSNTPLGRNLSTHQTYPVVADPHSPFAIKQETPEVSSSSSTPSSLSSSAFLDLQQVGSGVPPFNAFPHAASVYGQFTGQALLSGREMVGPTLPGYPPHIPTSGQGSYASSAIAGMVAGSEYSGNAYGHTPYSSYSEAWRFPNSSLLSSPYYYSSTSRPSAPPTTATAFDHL

Cc1nn2c(CN(C(=O)CN3CCOCC3)c3ccccc3)nnc2c2ccccc12
EC50 [1]: > 195 µM (not active)
IC50 (Coagulation factor XII): > 50 µM (inactive)

COC(=O)[C@H](C(C)C)n1c(C)c(C(C)=O)c(C(C)=O)c1C
Ki (fMet-Leu-Phe receptor): > 66.7 µM (inactive)

Cc1ccc(/C=C2\C(=O)NC(=O)N(CCc3ccc(F)cc3)C2=O)o1
IC50 [2]: 3.55 µM (active)

Oc1cc(-c2ccccc2)nc2cc(Cl)ccc12
EC50 [3]: 2.42 µM (inconclusive)
IC50 [4]: > 80 µM (inactive)
EC50 (BJ [5]): 19.8 µM (active)
EC50 [6]: 0.209 µM (active)
EC50 (BJ [7]): 1.42 µM (inconclusive)
EC50 [8]: 2.36 µM (active)
EC50 (BJ [9]): 1.04 µM (active)
EC50 [10]: 0.906 µM (inconclusive)

CC(C)=CCC/C(C)=C/C=C/C1=CC2(C)CC1(C)C(/C=C(\C)CCC=C(C)C)CC2=O (configuration not stated)
AC50 (Cytochrome P450 3A4): 3.98 µM (inconclusive)

O=C(C1=C(O)C(=O)N(CCCN2CCOCC2)C1c1ccccn1)c1cc2ccccc2o1 (configuration not stated)
Ki (fMet-Leu-Phe receptor): 60.7 µM (inactive)

O=C1NC2(CCCCC2)NN1c1ccccc1
IC50 (Prothrombin): > 50 µM (not active)

CC1[C@@]2(O[C@@H]3C=C4C5CCC6Cc7nc8c(nc7C[C@@]6(C)C5C[C@H](O)[C@@]4(C)[C@]13O)CC1CCc3c(cc4c5c3C(O)C[C@H]5[C@@H](C)C3(O4)OC(C)(C)CC3O)[C@]1(C)C8)O[C@@](C)(CO)C[C@@H]2O (some centres not stated)
GI50 (SN12K1): 0.0404 µM (active)
GI50 (P388): 0.103 µM (active)
GI50 (P388/ADR): 2.69 µM (inactive)

Cc1cc(-c2ccccc2)nc(N/N=C/c2ccc([N+](=O)[O-])cc2)n1
IC50 (Fatty acid synthase [11]): 8.37 µM (active)
IC50 (Fatty acid synthase [12]): 6.41 µM (active)
IC50 (Nonstructural protein 1): > 100 µM (active)

CCN(CC)c1ccc2c(C)cc(=O)oc2c1
AC50 (Cytochrome P450 3A4): 20 µM (inconclusive)

Clc1ccc2oc3c(Cl)ncnc3c2c1
IC50 [2]: 6.41 µM (active)

CC(CN1C(C)CCCC1C)OC(=O)c1ccc(Cl)cc1Cl (configuration not stated)
IC50 (Coagulation factor XII): > 50 µM (inactive)

NC(=O)c1ccsc1NC(=O)c1nc(-c2ccccc2)n(-c2ccccc2)n1
IC50 (Prothrombin): 4.3 µM (active)

Cc1ccc(S(=O)(=O)Nc2ccc3c(c2)C(=O)N([C@@H](C)CO)C[C@@H](C)[C@H](CN(C)Cc2ccc(C(F)(F)F)cc2)OCCCC[C@H](C)O3)cc1
AC50 (Paired box protein Pax-8): 6.38 µM (active)
AC50 [13]: 4.07 µM (active)
AC50 [14]: > 70 µM (inactive)

COc1cc(/C=N/Nc2n[nH]c3c4ccccc4nc-3n2)ccc1O
IC50 [15]: 3.9 µM (active)

Nc1ccn(C2OC(CO)C(O)C2O)c(=O)c1 (configuration not stated)
GI50 (SN12K1): 344 µM (inactive)
GI50 (P388): 57 µM (inactive)

Nc1ccnn1Cc1cccs1
IC50 (Coagulation factor XII): > 50 µM (inactive)
